Laboratory results reported in patent US20030138429A1, “Compositions and methods for inhibiting metastasis” (priority 2001, published 2003).
Entries after “also recorded” stand apart in the source; their conditions may differ.

Tests used:
[1] = test system: 1-LN human prostate tumor cells; assay: Binding of 125I-labeled Pg 2 glycoforms to 1-LN cells; details: for BINDING +6-AHA: binding to surface of 1-LN cells in presence of 6-AHA; for BINDING +6-AHA / BINDING +L-lactose: Yes/No; for BINDING +L-lactose: binding to surface of 1-LN cells in presence of L-lactose; for Binding to 1-LN cells: in words; for Bound (Molecules × 10^5/cell): maximal binding, mean ± SD
Procedure: Ligand Binding Analysis—Cells were grown in tissue culture plates until the monolayers were confluent. Prior to use in binding assays, the cells were washed in HBSS. All binding assays were performed at 4° C. in RPMI 1640 containing 2% bovine serum ablumin (BSA). Increasing concentrations of ^125I-labeled Pg 2 glycoforms were incubated with cells for 60 min in 48-well or 96-well culture plates, respectively. Free ligand was separated from bound by aspirating the incubation mixture by and washing the cell monolayers rapidly three times with RPMI 1640 containing 2% BSA. The cells were then lyzed with 0.1 M NaOH, and bound radioactivity was determined in a Pharmacia LKB Biotechnology 1272-gamma counter. Molecules of ligand bound were calculated after substraction of non-specific binding measured in the presence of nonlabeled 100 μM Pg 2. Estimates for dissociation constant (Kd) values and maximal binding of Pg 2 glycoforms (Bmax) were determined by fitting data directly to the Langmuir isotherm using the statistical program SYStat® for Windows.
Binding of Single Pg 2 Glycoforms to 1-LN Human Prostate Tumor Cells—Binding of ^125I-labeled single Pg 2 glycoforms to 1-LN cells was determined as described under Experimental Procedures. Native Pg 2 has six glycoforms which differ in their sialic acid content.
In order to assess the binding mechanism of the individual Pg 2 glycoforms to 1-LN cells, we studied their activation by cells incubated with each glycoform in the presence of 6-aminohexanoic acid (6-AHA) and L-lactose. The antifibrinolytic amino acid 6-AHA prevents interaction of Pg L-lysine binding sites with several cell membrane-associated components. L-lactose is a sugar which intereferes with binding of Neu 5-AC (α2-3) or (α2-6) residues to sialic acid binding proteins and inhibits binding of Native Pg 2 to DPP IV on the surface of rheumatoid synovial fibroblasts.

1-LN cells = assay: MMP-9 activity in serum-free culture medium of 1-LN cells (quantitative gelatin zymography); type: cell-based, human; details: for Active MMP-9: 24 h; for MMP-9 EXPRESSION Secretion: Yes/No
Procedure: Gelatin Zymography—Protein samples were electrophoresed on gelatin-containing 0.75 mm thick 10% polyacrylamide gels in the presence of SDS under nonreducing conditions. After completion of the electrophoretic run, the gels were incubated with two changes of 2.5% Triton X-100 for 1 h, followed by incubation for 18 h at 37° C. in 0.1 M glycine-NaOH, pH 8.3, containing 1 mM CaCl2, and […], before staining with Coomassie Brilliant Blue R-250 to visualize the lysis bands.
MMP-9 Activity in Solution—MMP-9 activity was measured in tissue culture supernatants by quantitative zymography using as a standard MMP-9 purified by affinity chromatography on gelatin-Sepharose from 1-LN cell conditioned medium (10 liters). Conditioned medium (50 μl), from 1-LN cell monolayers in 48 well culture plates (1.7×10^6 cells/well) incubated with Pg 2 glycoforms and/or inhibitors of Pg binding or activation, were electrophoresed on gelatin-containing gels and the degree of lysis was quantified using a Gelman ACD-15 Automatic Computing Densitometer (Gelman Instrument Company, Ann Arbor, Mich.). Values were determined by integrating the density of the selected bands and expressed in units×mm^2. Each gel was scanned three times and the average value of the integrated density of the bands was used to determine levels of MMP-9 from calibration curves constructed with purified active MMP-9 electrophoresed under the same conditions. The statistical analysis of the data was performed on an IBM 433 DX/S computer using the program SYSTAT® for Windows 95. The statistical significance of differences between means was evaluated by Student's t-test. MMP-9 was positively identified in conditioned medium by electrophoretic separation in 10% SDS-polyacrylamide gels (SDS-PAGE), electroblot of the electrophoresed proteins to nitrocellulose membranes and reaction with an anti-MMP-9 mAb (1 μg/ml) followed by reaction with a secondary alkaline phosphatase conjugated anti-mouse IgG. Detection was performed by reaction with the alkaline phosphatase substrate 5-bromo-4-chloro-3-indolyl phosphate in the presence of nitroblue tetrazolium (1 mM each) in 10 mM Tris-HCl, pH 8.5.
Effect of Pg on the Expression of MMP-9 by 1-LN Cells—Cells were seeded into 48-well culture plates and grown in RPMI 1640 containing 10% fetal bovine serum. Confluent monolayers were then incubated for 24 h with quiescent culture medium containing RPMI 1640 and 0.5% fetal bovine serum. Each individual Pg 2 glycoform (0.1 μM) was added in triplicate to cell monolayers in 300 μl of serum-free RPMI 1640 and incubated for 24 h at 37° C. Culture medium was collected to measure secretion of MMP-9 as described under Experimental Procedures. Prior to analyses of the MMP-9 secreted into the medium by 1-LN cells in the presence of individual Pg 2 glycoforms, we purified MMP-9 from conditioned medium (5 liters) by the technique of Masure et al.. […] A similar analysis of the Mr˜95,000 protein yielded the sequence APRQRQ, corresponding to the amino-terminal sequence of proMMP-9. […] We then proceeded to analyze the MMP-9 secreted into the medium by 1-LN cells incubated with each individual Pg 2 glycoform in serum-free culture medium, using the purified MMP-9 as a standard for quantification by gelatin zymography. These analyses (FIG. 7A) show a major band of active protein with a Mr˜85,000. […] Samples of these conditioned media were also subjected to SDS-PAGE under reducing conditions, electroblotted to nitrocellulose membranes and then reacted with an anti-MMP-9 mAb (FIG. 7B). […] A 4-fold decrease in the production of MMP-9 by cells co-incubated with anti-DPP IV mAb 236.3 and Pg 2ε (p<0.001) (Table II) is clearly observed in the conditioned medium (Lane 6 on FIGS. 8A and 8B, respectively).

[2] = 125I-labeled glycoform, 1-LN cell monolayers, serum-free RPMI 1640, mean ± SD
[3] = 125I-labeled glycoform, 1-LN cell monolayers
[4] = SFM + 6-AHA (100 nM) + glycoform 0.1 μM
[5] = SFM + DPP IV-Ab (50 μg/ml) + glycoform 0.1 μM
[6] = SFM + L-lac (100 mM) + glycoform 0.1 μM
[7] = SFM + glycoform 0.1 μM, no additive, 37° C.

Row | Compound | Kd [1, 2] [nM] | BINDING +6-AHA [1] | BINDING +L-lactose [1] | Binding to 1-LN cells [1] | Bound (Molecules × 10^5/cell) [1, 3] [Molecules × 10^5/cell] | Active MMP-9 (1-LN cells; [4]) [ng/mL] | Active MMP-9 (1-LN cells; [5]) [ng/mL] | Active MMP-9 (1-LN cells; [6]) [ng/mL] | Active MMP-9 (1-LN cells; [7]) [ng/mL] | MMP-9 EXPRESSION Secretion (1-LN cells) | Kd (nM) [1, 2] | Stimulation of active MMP-9 secreted (1-LN cells; compared to cells with other Pg 2 glycoforms or culture medium, p<0.001) [fold] | Inhibition of binding of single Pg 2 glycoforms to 1-LN cells ([1]; 125I-labeled glycoform 0.1 μM, increasing concentrations of inhibitor) | Active MMP-9 (1-LN cells; SFM + additive alone, no Pg 2 glycoform) [ng/mL] | Decrease in the production of MMP-9 (1-LN cells; cells co-incubated with Pg 2ε, L-lactose 100 mM, anti-DPP IV mAb) [fold]
1 | Pg 2γ: glycoform of human plasminogen type 2 purified from plasma; 2.95 mol sialic acid/mol Pg | 10.6 ± 1.43 | Yes | No | bind to 1-LN cells in a dose-dependent manner with high affinity | 8.6 ± 1.7 | 0.63 ± 0.21 | 0.58 ± 0.12 | 0.15 ± 0.03 | 0.60 ± 0.17 | No |  |  |  |  | 
2 | Pg 2φ: glycoform of human plasminogen type 2 purified from plasma; 13.65 mol sialic acid/mol Pg |  |  |  | does not bind; also recorded: No binding |  | 0.57 ± 0.11 |  | 0.11 ± 0.02 | 0.63 ± 0.14 |  | No Binding |  |  |  | 
3 | Pg 2ε: glycoform of human plasminogen type 2 purified from plasma; 5.34 mol sialic acid/mol Pg | 3.8 ± 0.83 | Yes | No | bind to 1-LN cells in a dose-dependent manner with high affinity | 9.4 ± 0.8 | 1.82 ± 0.23 | 0.49 ± 0.14 | 0.14 ± 0.05 | 1.80 ± 0.21 | Yes |  | 3 |  |  | 
4 | OC[C@@H]1O[C@H](O[C@@H]2[C@@H](O)[C@H](O)C(O)O[C@H]2CO)[C@@H](O)[C@H](O)[C@@H]1O (stereo partly drawn) [L-lactose, reference compound] |  |  |  |  |  |  |  |  |  |  |  |  | inhibited binding of Pgs 2γ, 2δ, and 2ε | 0.15 ± 0.03 | 12
5 | Pg 2δ: glycoform of human plasminogen type 2 purified from plasma; 5.77 mol sialic acid/mol Pg | 13.6 ± 1.04 | Yes | No | bind to 1-LN cells in a dose-dependent manner with high affinity | 18.1 ± 2.4 | 0.57 ± 0.14 | 0.56 ± 0.11 | 0.18 ± 0.04 | 0.62 ± 0.18 | No |  |  |  |  | 
6 | Pg 2α: glycoform of human plasminogen type 2 purified from plasma; 1.3 mol sialic acid/mol Pg | 24.3 ± 1.33 | No | Yes | bind to 1-LN cells in a dose-dependent manner with high affinity | 13.0 ± 4.6 | 0.59 ± 0.17 |  | 0.11 ± 0.02 | 0.59 ± 0.16 | No |  |  |  |  | 
7 | Pg 2β: glycoform of human plasminogen type 2 purified from plasma; 2.2 mol sialic acid/mol Pg | 7.4 ± 1.86 | No | Yes | bind to 1-LN cells in a dose-dependent manner with high affinity | 8.3 ± 1.3 | 0.5 ± 0.13 |  | 0.17 ± 0.04 | 0.59 ± 0.13 | No |  |  |  |  | 
